This is an account of results in patent US9980943B2, “Methods of treating muscular dystrophy” (BOARD OF REGENTS OF THE NEVADA SYSTEM OF HIGHER EDUCATION, …, priority 2013, dated 2018).

Read-outs that look alike come from different tables or passages of the source.

Type in all cases: cell-based, mouse
The subject of assay [1] is α7 integrin (LacZ reporter in α7βgal+/− myoblasts). Kind of assay: Myoblast α7+/LacZ integrin FDG assay (Burkin assay in myoblasts, 96-well). The following applies: α7+/LacZ myoblasts, 96-well; for fold induction at 0.5 µM / fold induction at 1 µM / fold induction at 5 µM / fold induction at 10 µM / fold induction at 20 µM / fold induction at 40 µM: Mus musculus, Myoblast, 48 h.

Assay [2] relates to α7 integrin (LacZ reporter in α7+/LacZ myotubes). Kind of assay: Myotube α7 integrin FDG assay (Burkin assay in myotubes, 96-well). The following applies: for fold induction at 0.5 µM / fold induction at 1 µM / fold induction at 5 µM / fold induction at 10 µM / fold induction at 20 µM / fold induction at 40 µM: Mus musculus, Myotube; for fold induction at 0.5 µM / fold induction at 1 µM / fold induction at 5 µM / fold induction at 10 µM / fold induction at 20 µM / fold induction at 40 µM / Burkin Assay in Myotubes (signal relative to DMSO): myotubes; for dose-response curve in myotubes: hits of Prestwick/Microsource screens.

Assay [3] concerns β-galactosidase in CMV-LacZ C2C12 myotubes. Put plainly: CMV-LacZ secondary screen in C2C12 myotubes (β-Gal stabilizing assay). The following applies: for fold induction at 5 µM / fold induction at 10 µM / fold induction at 20 µM / fold induction at 40 µM: Mus musculus, C2C12 CMV-LacZ myotubes, fold relative to DMSO; for CMV-LACZ in Myotubes (β-galactosidase activity relative to DMSO): CMV-LacZ C2C12 myotubes, 96-well format. The source says:
In order to determine compounds that acted to stabilize β-gal in myogenic cells, a CMV-LacZ C2C12 cell line was used in a secondary screen. The EGFP gene from the pEGFP (Clontech) vector was replaced by LACZ PCR product with digests of the vector/PCR product performed using EcoRI (NEB) and NotI (NEB) and ligated using T4 DNA Ligase (NEB) following standard procedures to produce the CMV-LACZ vector. The LACZ gene was generated by PCR from the pBK-RSV (Stratagene) vector using primers LACZ EcoRI F- and LACZ NotI R-. The CMV-LACZ vector was then digested with AfIII (NEB) to linearize the construct, which was then transfected in C2C12 myoblasts using Lipofectamine 2000 (Invitrogen) following the manufacturer's instructions. […] Clonal lines were selected and screened for βgal levels using the myoblast FDG assay.
The assays were used the original 96-well format and new dose-response curves for myoblasts (N=3-6 replicates for each data point), myotubes (N=3-6 replicates for data point), and CMV-LacZ secondary assay (N=2 replicates for each data point) using concentrations of 0.5 μM, 1 μM, 5 μM, 10 μM, 20 μM, and 40 μM (Tables 9-16).

[4] abbreviates: 0.5 uM, read-out: Burkin Assay in Myoblasts, signal relative to DMSO.
[5] abbreviates: 1 uM, read-out: Burkin Assay in Myoblasts, signal relative to DMSO.
Setting [6] is: 5 uM, read-out: Burkin Assay in Myoblasts, signal relative to DMSO.
[7] abbreviates: 10 uM, read-out: Burkin Assay in Myoblasts, signal relative to DMSO.
Where [8] appears, read: 20 uM, read-out: Burkin Assay in Myoblasts, signal relative to DMSO.
[9] abbreviates: 40 uM, read-out: Burkin Assay in Myoblasts, signal relative to DMSO.
Where [10] appears, read: 0.5 uM, read-out: Burkin Assay in Myotubes, α7 integrin LacZ reporter signal relative to DMSO.
[11] abbreviates: 1 uM, read-out: Burkin Assay in Myotubes, α7 integrin LacZ reporter signal relative to DMSO.
The mark [12] stands for this setting: 5 uM, read-out: Burkin Assay in Myotubes, α7 integrin LacZ reporter signal relative to DMSO.
[13] abbreviates: 10 uM, read-out: Burkin Assay in Myotubes, α7 integrin LacZ reporter signal relative to DMSO.
The mark [14] stands for this setting: 20 uM, read-out: Burkin Assay in Myotubes, α7 integrin LacZ reporter signal relative to DMSO.
[15] abbreviates: 40 uM, read-out: Burkin Assay in Myotubes, α7 integrin LacZ reporter signal relative to DMSO.

For the molecule `COc1ccc(Nc2ncnc3ccc(C)cc23)cc1` [MLS001212498-01], the fold induction at 0.5 µM in assay [1] (setting [4]) amounted to 1.05; in assay [2] (setting [10]) it was 0.941. In addition, the fold induction at 1 µM in assay [1] (setting [5]) stood at 1.2; in assay [2] (setting [11]) it was 1.12. The fold induction at 5 µM worked out at 1.18 in assay [1] (setting [6]); 1.11 in assay [2] (setting [12]); 0.85 in assay [3] (C2C12, read-out: CMV-LACZ in Myotubes, signal relative to DMSO, 5 uM). In addition, the fold induction at 10 µM in assay [1] (setting [7]) came to 1.31; in assay [2] (setting [13]), 1.34; in assay [3] (C2C12, read-out: CMV-LACZ in Myotubes, signal relative to DMSO, 10 uM) it was 0.784. In addition, the fold induction at 20 µM in assay [1] (setting [8]) stood at 1.29; in assay [2] (setting [14]) it was 1.16; in assay [3] (C2C12, read-out: CMV-LACZ in Myotubes, signal relative to DMSO, 20 uM), 0.749. In addition, the fold induction at 40 µM in assay [1] (setting [9]) came to 1.4; in assay [2] (setting [15]) it was 1.16; in assay [3] (C2C12, read-out: CMV-LACZ in Myotubes, signal relative to DMSO, 40 uM), 0.848.

In the case of `CCS(=O)(=O)N1CCN(c2ccc([N+](=O)[O-])c(NCC3CCCO3)c2)CC1` (centres unmarked) [MLS000693370-01], the fold induction at 0.5 µM turned out to be 0.864 in assay [1] (0.5 uM, read-out: Burkin Assay in Myoblasts, value relative to DMSO) and 1.11 in assay [2] (0.5 uM, read-out: Burkin Assay in Myotubes (signal relative to DMSO)). Besides, the fold induction at 1 µM in assay [1] (1 uM, read-out: Burkin Assay in Myoblasts, value relative to DMSO) came out at 0.8; in assay [2] (1 uM, read-out: Burkin Assay in Myotubes (signal relative to DMSO)), 1.13. Moreover, the fold induction at 5 µM in assay [1] (5 uM, read-out: Burkin Assay in Myoblasts, value relative to DMSO) was found to be 0.887; in assay [2] (5 uM, read-out: Burkin Assay in Myotubes (signal relative to DMSO)), 1.16. The fold induction at 10 µM amounted to 1.06 in assay [1] (10 uM, read-out: Burkin Assay in Myoblasts, value relative to DMSO) and 1.28 in assay [2] (10 uM, read-out: Burkin Assay in Myotubes (signal relative to DMSO)). Moreover, the fold induction at 20 µM in assay [1] (20 uM, read-out: Burkin Assay in Myoblasts, value relative to DMSO) was 0.951; in assay [2] (20 uM, read-out: Burkin Assay in Myotubes (signal relative to DMSO)), 1.15. Moreover, the fold induction at 40 µM is 0.937 in assay [1] (40 uM, read-out: Burkin Assay in Myoblasts, value relative to DMSO) and 1.25 in assay [2] (40 uM, read-out: Burkin Assay in Myotubes (signal relative to DMSO)). Moreover, the “CMV-LACZ in Myotubes (β-galactosidase activity relative to DMSO)” value was found to be 0.9783 in assay [3] (5 uM), 0.9621 in assay [3] (10 uM), 0.9947 in assay [3] (20 uM) and 1.1136 in assay [3] (40 uM).

Regarding `COc1ccc(Nc2ncnc3ccc(Br)cc23)cc1OC` [MLS001196422-01], the fold induction at 0.5 µM in assay [1] (setting [4]) was 0.746; in assay [2] (setting [10]), 0.976. Besides, the fold induction at 1 µM in assay [1] (setting [5]) amounted to 0.978; in assay [2] (setting [11]), 1.14. Besides, the fold induction at 5 µM in assay [1] (setting [6]) was found to be 1.23; in assay [2] (setting [12]), 1.19; in assay [3] (5 uM, read-out: CMV-LACZ in Myotubes, signal relative to DMSO), 0.896. The fold induction at 10 µM in assay [1] (setting [7]) came to 1.33; in assay [2] (setting [13]) it was 1.32; in assay [3] (10 uM, read-out: CMV-LACZ in Myotubes, signal relative to DMSO), 0.893. Besides, the fold induction at 20 µM was determined as 1.25 in assay [1] (setting [8]); 1.09 in assay [2] (setting [14]); 0.83 in assay [3] (20 uM, read-out: CMV-LACZ in Myotubes, signal relative to DMSO). The fold induction at 40 µM is 1 in assay [1] (setting [9]); 0.975 in assay [2] (setting [15]); 0.856 in assay [3] (40 uM, read-out: CMV-LACZ in Myotubes, signal relative to DMSO).

Regarding `O=C(CSc1nnc(C2CC2)n1C1CC1)c1cccs1` [MLS002161757-01], the “Burkin Assay in Myoblasts, value relative to DMSO” value worked out at 0.9614 in assay [1] (0.5 uM); 0.892 in assay [1] (1 uM); 0.9113 in assay [1] (5 uM); 0.9135 in assay [1] (10 uM); 1.009 in assay [1] (20 uM); 1.151 in assay [1] (40 uM). The “Burkin Assay in Myotubes (signal relative to DMSO)” value was 0.8459 in assay [2] (0.5 uM); 1.07 in assay [2] (1 uM); 1.092 in assay [2] (5 uM); 1.06 in assay [2] (10 uM); 0.9795 in assay [2] (20 uM); 1.146 in assay [2] (40 uM). In addition, the “CMV-LACZ in Myotubes (β-galactosidase activity relative to DMSO)” value in assay [3] (5 uM) is on record as 0.919; in assay [3] (10 uM) it was 1.102; in assay [3] (20 uM), 1.153; in assay [3] (40 uM), 1.256.

`CC(C)CCC[C@@H](C)[C@H]1CC[C@H]2[C@@H]3CC(=O)[C@H]4C[C@@H](O)CC[C@]4(C)[C@H]3CC[C@]12C` [5alpha-cholestan-3β-ol-6-one, reference compound]: in assay [2], the “dose-response curve in myotubes” value was “positive dose-response curve”.

With `CCCC(=O)[O-].[Na+]` [sodium butyrate, reference compound], in assay [2] (treatments of ~1.5 mM, preliminary screens), the β-galactosidase levels result was “increase β-galactosidase levels”.

Consider `Cc1cc(C2CCCCC2)n(O)c(=O)c1` [Ciclopirox ethanolamine, reference compound], for which the “dose-response curve in myotubes” value in assay [2] is “positive dose-response curves”.

Turning to `c1ccc(-c2ccccn2)nc1` [2,2-Dipyridyl, reference compound], in assay [2], the “dose-response curve in myotubes” value is recorded as “positive dose-response curves”.
